According to the METLIN SMRT retention time set (Domingo-Almenara et al. 2019):

Assay: gradient 5% acetonitrile 3 min, to 50% in 2 min, to 85% in 15 min, held 3 min, 100 µL/min
Details: column: Zorbax Extend-C18 2.1 x 50 mm; eluents: water / acetonitrile, 0.1% formic acid
Procedure, shortened: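 The mobile phases were water and acetonitrile, each with 0.1% formic acid, pumped at 100 μL/min through a Zorbax Extend-C18 column (2.1 × 50 mm, 1.8 μm). Pure standards were injected as mixtures of ~100 molecules and detected by a quadrupole time-of-flight mass spectrometer in positive and negative ionization mode. Retention time came from computationally picked adduct peaks, each inspected by hand.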

SMILES | RP-LC retention time [s]
COc1cccc(C2Cn3nnc(-c4nc(-c5cccc(F)c5)no4)c3CO2)c1 (stereo not given) | 1130
Cc1nn2c(CNC(=O)c3ccc(C(F)(F)F)cc3)c(C)nc2s1 | 692
COc1cccc(CNC(=O)N2CCCC2c2cc(C(C)C)on2)c1 (stereo not given) | 832
CCC(=O)N(C)CCc1noc(-c2ccc(C(=O)NCCCOC)cc2)n1 | 650
CCCc1nc2cccnc2n1C1CCN(C(=O)c2ccc(N3CCCC3=O)cc2)C1 (stereo not given) | 579
Cc1nnc(NC(=O)c2nc(-c3cnccn3)no2)s1 | 598
Cc1ccc(S(=O)(=O)CCc2noc(-c3sc(C)nc3C)n2)cc1 | 818
CN1C(=O)C2CCCCN2c2ccc(C(=O)NCCN3CCCCC3)cc21 (stereo not given) | 609
O=c1ccc(-c2ccc3c(c2)OCO3)nn1CCc1nc(-c2ccc(F)c(Br)c2)no1 | 1030
CCOC(=O)c1ccc(Nc2c(C(=O)N3CCCCC3C)cnc3nc(C)ccc23)cc1 (stereo not given) | 653
COc1ccc(-c2nnc3sc(-c4cccnc4)nn23)cc1OC | 695
COc1ccc(N2CCN(c3cc(SCC(=O)NCc4ccccc4OC)ncn3)CC2)cc1 | 888
Clc1ccccc1-n1ncc2c(NCc3ccco3)ncnc21 | 719
Cc1ccc2c(c1)N(Cc1cc(F)cc(F)c1)N=C(C(=O)N1CCC(C)CC1)S2(=O)=O | 1080
O=C(CCCc1ccccc1)Nc1cnn(-c2ncc(N3CCCC3)cn2)c1 | 849
Cc1noc(C)c1Cc1ccc(C(=O)N2CCC3(CCC3O)CC2)o1 (stereo not given) | 698
O=C(Cn1nc(N2CCCCCC2)c2ccccc2c1=O)Nc1ccc2c(c1)OCCO2 | 1010
Cc1cc(C)cc(Oc2nccn3c(=O)n(CC(=O)Nc4cccc(Cl)c4C)nc23)c1 | 992
COc1ccc(NC(=O)Cc2c(C)nn(-c3nc(-c4ccc(Cl)cc4)cs3)c2C)cc1 | 1210
CSc1cccc(NC(=O)Cn2c(=O)n(-c3ccc(F)cc3)c(=O)c3c2cc(C)n3C)c1 | 896
CCCCCn1c(=O)c2ccccc2n(Cc2nc(-c3ccccc3Cl)no2)c1=O | 1260
Cc1ccc(-n2cc(C(=O)N3CCSCC3)nn2)cc1C | 852
C=CCSc1nc2ccccc2c2nc(C)nn12 | 982

SMILES | RP-LC retention time [s]
O=C(C1CCC1)N1CCc2sc(S(=O)(=O)Nc3cccc(Cl)c3)cc2C1 | 941
CCc1ccc(NC(=O)c2c(O)c3cccnc3n(-c3ccc(F)cc3)c2=O)cc1 | 1230
COc1ccc(Cc2nnc(SCC(=O)Nc3nc(-c4ccccc4)cs3)o2)cc1 | 985
COc1ccc2c(c1)C1(CCN(C(=O)Nc3ccccc3F)C1)C(=O)N2 (stereo not given) | 701
CC(=O)c1ccc(NC(=O)CN2C(=O)C3CCCCN3c3ccc(C(=O)N4CCCC4)cc32)cc1 (stereo not given) | 996
Cc1cc(-c2nnc(-c3ccco3)o2)c(C)n1CC(=O)Nc1ccc(F)cc1 | 858
CCC1CN(C(=O)N2CCC(C(=O)NCCCN3CCCCCC3)CC2)c2ccccc2O1 (stereo not given) | 663
O=c1c2sccc2n(Cc2nc(-c3cccc(C(F)(F)F)c3)no2)c(=O)n1Cc1ccccc1 | 1190
O=C(NCCc1ccccc1)C(=O)NCc1cccnc1 | 567
O=C(C1CC1)N1CCc2sc(S(=O)(=O)NCc3cccc(Cl)c3)cc2C1 | 923
Cc1nc2cc(N3CC(C(=O)NCc4ccccc4F)CC3=O)ccc2o1 (stereo not given) | 699
CCC(C)NC(=O)Cn1ccc2ccc(-c3nnc(C)o3)cc21 (stereo not given) | 713
CC(C)N1CCn2c(nc3cc(C(=O)NCc4cccc(Cl)c4)ccc32)C1=O | 733
COc1cccc(/C=C/c2nccc3ccccc23)c1OC | 768
O=C(Cn1cnc2ccccc2c1=O)N1CCOCC1 | 590
CC(=O)CC(=O)Nc1ccc2ccccc2c1 | 800
N#Cc1cccc(NC(=O)c2cc(C3CC3)n3nccc3n2)c1 | 942
O=C(C1=CN(c2cccc(Cl)c2)c2cc(F)ccc2S1(=O)=O)N1CCOCC1 | 811
Cc1cc(C)c(C)c(S(=O)(=O)N2CCc3nc[nH]c3C2)c1C | 666
O=C(Nc1ccc(F)c(Cl)c1)C1CCN(C(=O)c2ncn3c2COC(c2ccccc2)C3)CC1 (stereo not given) | 864
Cc1nc2cc(-c3noc(-c4c(F)cccc4Cl)n3)ccc2o1 | 1100
O=C(Cn1cc(-c2nc(-c3ccc(Cl)cc3)no2)ccc1=O)N1CCCC1 | 959
COCCNC(=O)CSc1nccc2c1ccn2Cc1ccccc1 | 666

SMILES | RP-LC retention time [s]
O=S(=O)(Nc1ccc(-c2noc(COc3ccc(Cl)cc3)n2)cc1)c1cccs1 | 1120
CCN(CC)c1ccc(/C=C2\SC(=O)NC2=O)cc1 | 876
O=C(NCc1ccco1)C1c2ccccc2C(=O)N(Cc2ccccc2)C12CCCC2 (stereo not given) | 943
Cc1nc2c(sc3nc(-c4ccccc4)ccc32)c(=O)n1CC(=O)NCc1ccccc1 | 972
O=C(NC1CCCC1)c1nnc(-c2ccc(S(=O)(=O)N3CCCCC3)cc2)o1 | 960
O=C(C1CCN(c2nc3ccc(-c4ccsc4)nc3s2)CC1)N1CCCCC1 | 911
Cc1ccc(-c2nnc(C)c(NCCN3CCOCC3)n2)cc1 | 547
COCCN1CCn2cc(S(=O)(=O)Nc3cccc(OC)c3)cc2C1=O | 670
COc1ccc(-c2cn3cccnc3n2)cc1NC(=O)c1ccc(OC)c(OC)c1 | 641
CCc1ccc(OCc2ccccc2C(=O)Nc2ccc3nc(C)cc(N)c3c2)cc1 | 838
Cc1cccc(NC(=O)C2CCN(S(=O)(=O)c3cn(C(C)C)cn3)CC2)n1 | 632
O=C(Nc1cccc(-c2nnc3n2CCCC3)c1)C1CCCCC1 | 699
CCOC(=O)c1ccc(Oc2ncnc(N)c2[N+](=O)[O-])cc1 | 769
Cc1ccccc1OCC(=O)NCCN1CCN(S(C)(=O)=O)CC1 | 558
Cc1ccc(S(=O)(=O)N2CCn3c(nnc3C3CCN(C(C)C)C3)C2)c(C)c1 (stereo not given) | 616
COc1ccc(N2CC(c3noc(-c4ccc(C)cc4C)n3)CC2=O)cc1 (stereo not given) | 1000
O=c1c2ccccc2c2ccccc2c(=O)n1Cc1ccco1 | 966
Cc1ccc(-c2cn3c(CC(=O)NCc4cccs4)csc3n2)cc1C | 799
Cc1ccccc1Nc1c(-c2ccc(Cl)cc2)nc2ccccn12 | 804
O=C(NCc1ccc2c(c1)OCO2)C1CCCN(c2nccn3nc(-c4ccccc4Cl)cc23)C1 (stereo not given) | 895
Cc1ccc2nc(C(=O)NC3CCN(Cc4ccccc4)CC3)cn2c1 | 560
Cc1ccc2c(c1)N(S(C)(=O)=O)CC(C)O2 (stereo not given) | 620
CC(C)c1cccc(Nc2nc3ccncc3n(Cc3ccccc3)c2=O)c1 | 911

SMILES | RP-LC retention time [s]
CCC(C)NC(=O)C1CCCN(c2nccnc2Sc2ccc(C)cc2)C1 (stereo not given) | 1320
CC(C)OCCCNC(=O)CC1=C2CCCCC2NC1=O (stereo not given) | 628
COc1ccc(NC(=O)Nc2c(-c3ccc(C)cc3)nc3ccccn23)cc1Cl | 712
CS(=O)(=O)N1CCCc2cc(C(=O)NCCCn3ccnc3)ccc21 | 597
O=C(c1ccoc1)N1CCC(c2nc(-c3ccccc3)no2)C1 (stereo not given) | 773
COC(=O)c1c(C)c(C(=O)C(C)N(CC(C)C)C(=O)c2ccc(Cl)cc2)c(C)n1C (stereo not given) | 1080
CNC(=O)[C@@H]1CN(C(=O)Cc2ccc(Br)cc2)C[C@H]1CO | 604
O=C(c1cccs1)N1CCC2(CC1)N=C(c1ccccc1)NO2 | 747
O=C(Nc1cccs1)Nc1ccccc1NC(=O)c1ccccc1C(F)(F)F | 805
CCC(=O)NCC[C@@H]1CCc2ccc3c(c21)CCO3 | 833
Fc1cccc(-c2noc(CSc3nccn3-c3ccccc3)n2)c1 | 916
CCCS(=O)(=O)N1CC(=O)N(c2cccc(Cl)c2C)C(C)(C(=O)NC2CCCCC2)C1 (stereo not given) | 1010
CC1=C(c2ccccc2)S(=O)(=O)N=C1N1CCCN(C(=O)C2CCC2)CC1 | 769
Cc1ccc2[nH]cc(CCN3CC(C(=O)NC4CCCCC4)CC3=O)c2c1 (stereo not given) | 819
CCSCCOC(=O)C1=C(C)NC2=C(C(=O)C(C(=O)OC)C(C)C2)C1c1ccccc1OC (stereo not given) | 967
Cc1ccnc(N2CCC(C(=O)NCCCN3CCCC3=O)CC2)n1 | 579
CCCN1CCN(C(=O)C(CC)n2c3ccccc3c3cnn(C)c(=O)c32)CC1 (stereo not given) | 618
Cc1ccc(S(=O)(=O)N2CCN(CCc3cn(C)c4ncccc34)CC2)cc1Cl | 686
COc1ccc(-c2cn3c(CC(=O)Nc4ccc(F)c(F)c4)csc3n2)cc1OC | 774
Cc1ccc(C)c(N2CCN(c3ccnc(SCC(=O)NCCCc4ccccc4)n3)CC2)c1 | 1060
COc1ccc(OC)c(CNC(=O)C2CCN(C(=O)C3Sc4ccccc4NC3=O)CC2)c1 (stereo not given) | 743
